# Experimental data from patent US20150218212A1, “FLUORINATED EPOXYKETONE-BASED TETRAPEPTIDE COMPOUNDS AND USES THEREOF AS PROTEASOME INHIBITORS” (FLUORINOV PHARMA INC., priority 2012, published 2015).
# Assays:
# Type in all cases: cell-based, human
# [1] = system: COLO 205; assay: NCI screening panel, COLO 205 (Colon Cancer)
# Method: (§1) Representative compounds of Formula I were screened using the National Cancer Institute (NCI) screening panel, which consists of a panel of human tumor cell lines, representing leukemia, melanoma, and cancers of the lung, colon, ovary, breast, prostate and renal system.
# (§2) After 24 h, two plates of each cell line are fixed in situ with TCA, to represent a measurement of the cell population for each cell line at the time of drug addition (Tz). Experimental drugs are solubilised in dimethyl sulfoxide at 400-fold the desired final maximum test concentration and stored frozen prior to use. At the time of drug addition, an aliquot of frozen concentrate is thawed and diluted to twice the desired final maximum test concentration with complete medium containing 50 μg/mL gentamicin. Additional four, 10-fold or ½ log serial dilutions are made to provide a total of five drug concentrations plus control. Aliquots of 100 μl of these different drug dilutions are added to the appropriate microtiter wells already containing 100 μl of medium, resulting in the required final drug concentrations.
# (§3) Following drug addition, the plates are incubated for an additional 48 h at 37° C., 5% CO2, 95% air, and 100% relative humidity. For adherent cells, the assay is terminated by the addition of cold TCA (trichloroacetic acid). Cells are fixed in situ by the gentle addition of 50 μl of cold 50% (w/v) TCA (final concentration, 10% TCA) and incubated for 60 minutes at 4° C. The supernatant is discarded, and the plates are washed five times with tap water and air dried. Sulforhodamine B (SRB) solution (100 μl) at 0.4% (w/v) in 1% acetic acid is added to each well, and plates are incubated for 10 minutes at room temperature. After staining, unbound dye is removed by washing five times with 1% acetic acid and the plates are air dried. Bound stain is subsequently solubilised with 10 mM trizma base, and the absorbance is read on an automated plate reader at a wavelength of 515 nm. For suspension cells, the methodology is the same except that the assay is terminated by fixing settled cells at the bottom of the wells by gently adding 50 μl of 80% TCA (final concentration, 16% TCA). Using the seven absorbance measurements [time zero, (Tz), control growth, (C), and test growth in the presence of drug at the five concentration levels (Ti)], the percentage growth is calculated at each of the drug concentrations levels. Percentage growth inhibition is calculated as: [(Ti−Tz)/(C−Tz)]×100 for concentrations for which Ti>/=Tz and [(Ti−Tz)/Tz]×100 for concentrations for which Ti<Tz.
# (§4) Three dose response parameters are calculated for each experimental agent. Growth inhibition of 50% (GI50) is calculated from [(Ti−Tz)/(C−Tz)]×100=50, which is the drug concentration resulting in a 50% reduction in the net protein increase (as measured by SRB staining) in control cells during the drug incubation. The drug concentration resulting in total growth inhibition (TGI) is calculated from Ti=Tz. The LC50 (concentration of drug resulting in a 50% reduction in the measured protein at the end of the drug treatment as compared to that at the beginning) indicating a net loss of cells following treatment is calculated from [(Ti−Tz)/Tz]×100=−50. Values are calculated for each of these three parameters if the level of activity is reached. However, if the effect is not reached or is exceeded, the value for that parameter is expressed as greater or less than the maximum or minimum concentration tested.
# [2] = system: IGROV1; assay: NCI screening panel, IGROV1 (Ovarian Cancer)
# Method: as §1, §2, §3, §4
# [3] = system: OVCAR-4; assay: NCI screening panel, OVCAR-4 (Ovarian Cancer)
# Method: as §1, §2, §3, §4
# [4] = system: LOX IMVI; assay: NCI screening panel, LOX IMVI (Melanoma)
# Method: as §1, §2, §3, §4
# [5] = system: M14; assay: NCI screening panel, M14 (Melanoma)
# Method: as §1, §2, §3, §4
# [6] = system: NCI/ADR-RES; assay: NCI screening panel, NCI/ADR-RES (Ovarian Cancer)
# Method: as §1, §2, §3, §4
# [7] = system: TK-10; assay: NCI screening panel, TK-10 (Renal Cancer)
# Method: as §1, §2, §3, §4
# [8] = system: SK-OV-3; assay: NCI screening panel, SK-OV-3 (Ovarian Cancer)
# Method: as §1, §2, §3, §4
# [9] = system: SF-268; assay: NCI screening panel, SF-268 (CNS Cancer)
# Method: as §1, §2, §3, §4
# [10] = system: HCC-2998; assay: NCI screening panel, HCC-2998 (Colon Cancer)
# Method: as §1, §2, §3, §4
# [11] = system: MDA-MB-231/ATCC; assay: NCI screening panel, MDA-MB-231/ATCC (Breast Cancer)
# Method: as §1, §2, §3, §4
# [12] = system: NCI-H460; assay: NCI screening panel, NCI-H460 (Non-Small Cell Lung Cancer)
# Method: as §1, §2, §3, §4
# [13] = system: T-47D; assay: NCI screening panel, T-47D (Breast Cancer)
# Method: as §1, §2, §3, §4
# [14] = system: MDA-MB-468; assay: NCI screening panel, MDA-MB-468 (Breast Cancer)
# Method: as §1, §2, §3, §4
structure (smiles),measurement,setting,value
"CC(C)C[C@H](NC(=O)[C@H](COC(F)F)NC(=O)[C@H](COC(F)F)NC(=O)[C@H](CCc1ccccc1)NC(=O)CN1CCOCC1)C(=O)[C@@]1(C)CO1 [Example 7, (2S)-N-[(1S)-1-(difluoromethoxymethyl)-2-[[(1S)-1-(difluoromethoxymethyl)-2-[[(1S)-3-methyl-1-[(2R)-2-methyloxirane-2-carbo-nyl]butyl]amino]-2-oxo-ethyl]amino]-2-oxo-ethyl]-2-[(2-morpholinoacetyl)amino]-4-phenyl-butanamide]",Log10GI50,[1],−7.23
same,Log10LC50,[1],>−4.00
same,Log10TGI50,[1],−5.89
same,Log10GI50,[2],−7.49
same,Log10LC50,[2],>−4.00
same,Log10TGI50,[2],−5.55
same,Log10GI50,[3],−7.69
same,Log10LC50,[3],>−4.00
same,Log10TGI50,[3],>−4.00
same,Log10GI50,[4],−7.99
same,Log10LC50,[4],−7.13
same,Log10TGI50,[4],−7.56
same,Log10GI50,[5],−7.11
same,Log10LC50,[5],>−4.00
same,Log10TGI50,[5],−5.70
same,Log10GI50,[6],−5.16
same,Log10LC50,[6],>−4.00
same,Log10TGI50,[6],>−4.00
same,Log10GI50,[7],−6.56
same,Log10LC50,[7],>−4.00
same,Log10TGI50,[7],−5.24
same,Log10GI50,[8],−6.94
same,Log10LC50,[8],>−4.00
same,Log10TGI50,[8],−5.46
same,Log10GI50,[9],−7.73
same,Log10LC50,[9],>−4.00
same,Log10TGI50,[9],−7.21
same,Log10GI50,[10],−7.60
same,Log10LC50,[10],−6.55
same,Log10TGI50,[10],−7.21
same,Log10GI50,[11],−7.64
same,Log10LC50,[11],−4.92
same,Log10TGI50,[11],−7.14
same,Log10GI50,[12],−7.28
same,Log10LC50,[12],>−4.00
same,Log10TGI50,[12],−6.50
same,Log10GI50,[13],−7.85
same,Log10LC50,[13],>−4.00
same,Log10TGI50,[13],−7.32
same,Log10GI50,[14],−7.58
same,Log10LC50,[14],−4.78
same,Log10TGI50,[14],−7.09
"CC(C)C[C@H](NC(=O)[C@H](Cc1ccccc1)NC(=O)[C@H](COC(F)F)NC(=O)[C@H](COC(F)F)NC(=O)CN1CCOCC1)C(=O)[C@@]1(C)CO1 [Example 11, (2S)-2-[[(2S)-3-(difluoromethoxy)-2-[[(2S)-3-(difluoromethoxy)-2-[(2-morpholinoacetyl)-amino]propanoyl]amino]propanoyl]amino]-N-[(1S)-3-methyl-1-[(2R)-2-methyloxirane-2-carbonyl]butyl]-3-phenyl-propanamide]",Log10GI50,[1],−7.21
same,Log10LC50,[1],>−4.00
same,Log10TGI50,[1],−5.31
same,Log10GI50,[2],−7.38
same,Log10LC50,[2],>−4.00
same,Log10TGI50,[2],−4.36
same,Log10GI50,[3],−7.68
same,Log10LC50,[3],>−4.00
same,Log10TGI50,[3],−5.69
same,Log10GI50,[4],−7.79
same,Log10LC50,[4],−7.09
same,Log10TGI50,[4],−7.44
same,Log10GI50,[5],−7.21
same,Log10LC50,[5],>−4.00
same,Log10TGI50,[5],−5.91
same,Log10GI50,[6],−5.16
same,Log10LC50,[6],>−4.00
same,Log10TGI50,[6],>−4.00
same,Log10GI50,[7],−6.80
same,Log10LC50,[7],>−4.00
same,Log10TGI50,[7],−5.30
same,Log10GI50,[8],−6.85
same,Log10LC50,[8],>−4.00
same,Log10TGI50,[8],−4.84
same,Log10GI50,[9],−7.66
same,Log10LC50,[9],−4.07
same,Log10TGI50,[9],−7.22
same,Log10GI50,[10],−7.66
same,Log10LC50,[10],−6.95
same,Log10TGI50,[10],−7.33
same,Log10GI50,[11],−7.56
same,Log10LC50,[11],−4.39
same,Log10TGI50,[11],−6.94
same,Log10GI50,[12],−7.29
same,Log10LC50,[12],−4.85
same,Log10TGI50,[12],−6.51
same,Log10GI50,[13],−7.71
same,Log10TGI50,[13],>−4.00
same,Log10GI50,[14],−7.62
same,Log10LC50,[14],−4.67
same,Log10TGI50,[14],−7.06
"CC(C)C[C@H](NC(=O)[C@H](COC(F)F)NC(=O)[C@H](COC(F)F)NC(=O)[C@H](COC(F)F)NC(=O)CN1CCOCC1)C(=O)[C@@]1(C)CO1 [Example 17, (2S)-3-(difluoromethoxy)-N-[(1S)-1-(difluoromethoxymethyl)-2-[[(1S)-1-(difluoro-methoxymethyl)-2-[[(1S)-3-methyl-1-[(2R)-2-methyloxirane-2-carbonyl]butyl]amino]-2-oxo-ethyl]amino]-2-oxo-ethyl]-2-[(2-mor-pholinoacetyl)amino]-propanamide]",Log10GI50,[1],−6.62
same,Log10LC50,[1],>−4.00
same,Log10TGI50,[1],−4.76
same,Log10GI50,[2],−6.87
same,Log10LC50,[2],>−4.00
same,Log10TGI50,[2],−5.82
same,Log10GI50,[3],−7.23
same,Log10LC50,[3],>−4.00
same,Log10TGI50,[3],−4.55
same,Log10GI50,[4],−7.36
same,Log10LC50,[4],−6.36
same,Log10TGI50,[4],−6.81
same,Log10GI50,[5],−6.59
same,Log10LC50,[5],>−4.00
same,Log10TGI50,[5],−5.41
same,Log10GI50,[6],−4.50
same,Log10LC50,[6],>−4.00
same,Log10TGI50,[6],>−4.00
same,Log10GI50,[7],−6.30
same,Log10LC50,[7],>−4.00
same,Log10TGI50,[7],−4.85
same,Log10GI50,[8],−6.26
same,Log10LC50,[8],>−4.00
same,Log10TGI50,[8],>−4.00
same,Log10GI50,[9],−7.15
same,Log10LC50,[9],−4.87
same,Log10TGI50,[9],−6.47
same,Log10GI50,[10],−6.74
same,Log10LC50,[10],−6.19
same,Log10TGI50,[10],−6.46
same,Log10GI50,[11],−6.87
same,Log10LC50,[11],−4.25
same,Log10TGI50,[11],−6.10
same,Log10GI50,[12],−6.50
same,Log10LC50,[12],−4.60
same,Log10TGI50,[12],−5.88
same,Log10GI50,[13],−7.10
same,Log10LC50,[13],>−4.00
same,Log10TGI50,[13],−6.33
same,Log10GI50,[14],−7.04
same,Log10LC50,[14],>−4.00
same,Log10TGI50,[14],−6.17
